Like-named read-outs stand apart in the source and are kept apart here. Bridges are numbered along the chain shown (N, C = ends). Where no end group is shown, it is not given here.
Legend:
[1] = test system: recombinant human Angiostatin protein; experiment: Phage display panning on Angiostatin protein; format: binding
Text: (§1) The Ph.D.-7 phage display library (New England BioLabs Cat #8100), a combinatorial library consisting of random peptide 7-mers, was screened for 7 amino acid binding peptides. The Ph.D.-7 phage display library consists of linear 7-mer peptides fused to the pIII coat protein of M13 via a Gly-Gly-Gly-Ser flexible linker. The library contains 2.8×10^9 independent clones. The Ph.D. library is useful for identifying targets requiring binding elements concentrated in a short stretch of amino acids.
The Ph.D.-C7C library (New England BioLabs Cat # 8120) is a combinatorial library consisting of random peptide 7-mers flanked by cysteine residues that under non-denaturing conditions are disulfide bonded resulting in the display of cyclized peptides. In non-reducing conditions, the cysteines form a disulfide bond resulting in each peptide being constrained in a disulfide loop. The library contains 3.7×10^9 independent clones that, like the Ph.D.-7 library, result in peptides fused to the pIII coat protein of M13 via a Gly-Gly-Gly-Ser flexible linker. Constrained libraries are useful in the identification of structural epitopes. The Ph.D.-C7C library was screened for the binding of 7 amino acid cyclized binding peptides.
The phage display libraries were screened following the manufacturers' recommendations. […]

B16-BL6 melanoma cells = experiment: B16-BL6 experimental metastasis assay; format: in vivo, C57BL/6J mice
Description: C57BL/6J mice were injected via the tail vein with 5×10^4 B16-BL6 melanoma cells on day 0. On day 3, groups of five mice received daily subcutaneous doses of either buffer control, 1.5 nmol (1.5 mg/kg/day) of rhEndostatin in combination with 0, 15, 75 or 375 nmol of control or E37 peptide, or control or E37 peptide alone for eleven days. All mice were sacrificed on day 14, and the number of pulmonary surface metastases in each animal counted. Error bars indicate standard deviation of the mean.
C57BL/6J mice (n=8) were injected intravenously (i.v.) with 5×10^4 B16-BL6 cells/mouse. Three days later treatment commenced. 100 μl of citrate-phosphate buffer (66 mM Sodium Phosphate, 17 mM Citric acid, 59 mM NaCl pH 6.2) containing 1.5 nmol of rhEndostatin and 100 μl of PBS containing either 0, 15, 75 or 375 nmol of control or E37 peptide were mixed and injected subcutaneously (s.c.) daily for 11 days. All mice were then sacrificed, their lungs removed and the number of surface metastases counted. Results were analyzed for statistical significance using the 2-tailed Student's t-test.
The following experiment was conducted to determine the interaction of E37 peptide and Endostatin protein. Briefly, the B16BL6 experimental metastasis assay, as known to those of skill in the art and further described in International Patent Application number PCT/US99/11418, was performed as follows. 5×10^4 B16-BL6 cells in 200 μl of PBS were injected into C57BL/6J mice via the tail vein. Three days post injection treatment was started. The injection received by eight groups of mice were: 1) citrate phosphate/PBS buffer, 2) ^30 μg Endostatin protein (in 100 μl PBS), 3) 30 μg Endostatin protein (in 200 μl PBS), 4) 30 μg Endostatin protein plus 50 times molar excess of control peptide (in 200 μl PBS), 5) 30 μg Endostatin protein plus 250 times molar excess of control peptide (in 200 μl PBS), 6) 30 μg Endostatin protein plus 10 times molar excess of E37 peptide (in 200 μl PBS), 7) 30 μg Endostatin protein plus 50 times molar excess of E37 peptide (in 200 μl PBS), and 8) 30 μg Endostatin protein plus 250 times molar excess of E37 peptide (in 200 μl PBS). Doses were administered daily for eleven days posterior to the thoracic cavity subcutaneously. All mice were sacrificed, the lungs removed and the number of surface metastases in each animal were counted under a stereo microscope.

HUVEC microfilaments = experiment: Fluorescent staining of formalin fixed endothelial cells with Alexa 488-labeled rhEndostatin; format: cell-based, human; details: 50-fold molar excess (100 μM) of peptide; 40 μg/ml (2 μM) Alexa-rhEndostatin
Description: (A), HUVECs, (B), HAECs and (C), HMVECs were incubated in the presence of 40 micrograms per milliliter (μg/ml) Alexa 488-labeled rhEndostatin and photographed at 100× magnification under Alexa 488 (green) excitation wavelength. (D) and (E), HUVECs were incubated simultaneously in anti-tropomyosin TM311 ascites fluid and 40 micrograms per milliliter (μg/ml) Alexa 488-labeled rhEndostatin followed by incubation in Alexa 594 conjugated goat anti-mouse IgG (H+L). The same field was photographed under Alexa 488 (green) and Alexa 594 (red) excitation wavelengths at 100× magnification.
HUVECs were incubated in the presence of 40 micrograms per milliliter (μg/ml) Alexa 488-labeled rhEndostatin alone (A), or in the presence of a 50-fold molar excess of control peptide (B), or E37 peptide (C). Cells were photographed using the same exposure times at 100x magnification under Alexa 488 (green) excitation wavelength.
To detect the binding of Alexa-labeled rhEndostatin 1×10^4 HUVEC, HMVEC and HAECs were plated on 1.5% gelatin coated Nalge Nunc Lab Tek II chamber slides (Naperville, Ill.) and fixed in 10% neutral buffered formalin followed by a methanol wash. The chamber slides were incubated in PBS/1% calf serum containing 40 μg/ml (2 μM) of Alexa 488-labeled rhEndostatin (Narum et al., manuscript in preparation) for 1 hr at room temperature. The slides were washed in PBS, coverslips mounted using fluorescent mounting media (Kirkegaard and Perry Laboratories, Gaithersburg, Md.) and cells photographed under Alexa 488 excitation wavelength. Co-localization studies were performed as above except cells were incubated in PBS/1% calf serum containing 1:200 mouse anti-tropomyosin TM311 (Sigma, St. Louis, Miss.) and 40 μg/ml of Alexa 488-labeled rhEndostatin followed by incubation with goat anti-mouse IgG (H+L) conjugated to Alexa 594 (Molecular Probes, Eugene, Oregon). The same fields were photographed under Alexa 488 and Alexa 594 wavelengths. […]

[2] = molecular target: T1, recombinant human Endostatin protein (Homo sapiens, UniProt P39060); experiment: Phage display panning on Endostatin protein; format: binding
T1 construct: recombinant human Angiostatin protein, K1-4 protein, or recombinant human Endostatin protein were coated overnight; made in house; host or cells: Pichia pastoris
T1 sequence (P39060 1572-1754 limits assumed): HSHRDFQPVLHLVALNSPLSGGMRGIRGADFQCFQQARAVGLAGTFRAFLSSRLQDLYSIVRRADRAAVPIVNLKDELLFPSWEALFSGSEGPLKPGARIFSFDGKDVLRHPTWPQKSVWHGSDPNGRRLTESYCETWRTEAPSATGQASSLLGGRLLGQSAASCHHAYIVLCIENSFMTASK
Text: The Ph.D.-C7C, a disulfide constrained 7-mer phage-display library (New England BioLabs, Beverly, Mass.), was screened as recommended by the manufacturer. Following a third round of amplification individual phage were isolated and the peptide sequences deduced by DNA sequencing.
as §1
The Ph.D.-C7C library (New England BioLabs Cat # 8120) is a combinatorial library consisting of random peptide 7-mers flanked by cysteine residues that under non-denaturing conditions are disulfide bonded resulting in the display of cyclized peptides. In non-reducing conditions, the cysteines form a disulfide bond resulting in each peptide being constrained in a disulfide loop. The library contains 3.7×10^9 independent clones that, like the Ph.D.-7 library, result in peptides fused to the pIII coat protein of M13 via a Gly-Gly-Gly-Ser flexible linker. […]

[3] = molecular target: recombinant human tropomyosin isoform 3 (human); experiment: SPR (BIAcore 3000), rhTM3 immobilized, steady state model

Sequence of recombinant human Angiostatin protein (P00747 103-352 limits assumed): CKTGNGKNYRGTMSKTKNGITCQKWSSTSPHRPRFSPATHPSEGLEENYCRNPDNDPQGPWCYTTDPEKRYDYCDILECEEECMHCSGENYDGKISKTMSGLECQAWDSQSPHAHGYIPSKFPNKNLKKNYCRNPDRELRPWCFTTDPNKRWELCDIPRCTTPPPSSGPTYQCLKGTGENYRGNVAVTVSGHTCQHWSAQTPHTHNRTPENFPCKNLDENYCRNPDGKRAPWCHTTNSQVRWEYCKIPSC

H A I Y P R H G G G S (HAIYPRHGGGS) [Peptide A10]
binding to Angiostatin protein (phage display selection) [1]: binds

CTHWWHKRCGGGS (disulfide 1-9 (inferred)) [E37 peptide]
decrease in the anti-tumor activity of rhEndostatin (B16-BL6 melanoma cells; co-injection of 1.5 nmol rhEndostatin with 15 nmol E37 peptide): 11% | decrease in the anti-tumor activity of rhEndostatin (B16-BL6 melanoma cells; co-injection of 1.5 nmol rhEndostatin with 75 nmol E37 peptide): 30.5% | decrease in the anti-tumor activity of rhEndostatin (B16-BL6 melanoma cells; co-injection of 1.5 nmol rhEndostatin with 375 nmol E37 peptide): 84.5% | number of metastatic lesions on the lungs versus control group (B16-BL6 melanoma cells; up to 375 nmol/day E37 peptide in the absence of rhEndostatin): not statistically different from that of the control group | inhibition of binding of Alexa-labeled rhEndostatin to HUVEC microfilaments (HUVEC microfilaments): inhibited the binding of rhEndostatin to HUVEC microfilaments | binding to Endostatin protein (phage display selection) [2]: binds | binding to Endostatin protein (phage display selection) ([2]; listed as E37): found to bind rhEndostatin

CSNSDKPKCGGGS (disulfide 1-9 (inferred)) [control peptide, reference compound]
incidence of metastatic lesions on the lungs versus 1.5 nmol rhEndostatin alone (B16-BL6 melanoma cells; co-injection of 1.5 nmol rhEndostatin and up to 375 nmol control peptide, p>0.11): statically indistinguishable | inhibition of binding of Alexa-labeled rhEndostatin to HUVEC microfilaments (HUVEC microfilaments): not

B1: recombinant human Endostatin protein (protein)
chain: HSHRDFQPVLHLVALNSPLSGGMRGIRGADFQCFQQARAVGLAGTFRAFLSSRLQDLYSIVRRADRAAVPIVNLKDELLFPSWEALFSGSEGPLKPGARIFSFDGKDVLRHPTWPQKSVWHGSDPNGRRLTESYCETWRTEAPSATGQASSLLGGRLLGQSAASCHHAYIVLCIENSFMTASK
modifications: Alexa Fluor 488 label in some experiments
Kd [3]: 100 µM

From patent publication US20020077289A1, “Angiostatin and endostatin binding proteins and methods of use” (priority 2000, published 2002)
